Assay results reported in US9120770B2, “Substituted pyridine and pyrazine compounds as PDE4 inhibitors” (DART NEUROSCIENCE (CAYMAN) LTD., priority 2013, dated 2015).

Molecular target: PDE4D3 (Homo sapiens, UniProt Q08499)
Sequence (Q08499 1-673 isoform Q08499-2): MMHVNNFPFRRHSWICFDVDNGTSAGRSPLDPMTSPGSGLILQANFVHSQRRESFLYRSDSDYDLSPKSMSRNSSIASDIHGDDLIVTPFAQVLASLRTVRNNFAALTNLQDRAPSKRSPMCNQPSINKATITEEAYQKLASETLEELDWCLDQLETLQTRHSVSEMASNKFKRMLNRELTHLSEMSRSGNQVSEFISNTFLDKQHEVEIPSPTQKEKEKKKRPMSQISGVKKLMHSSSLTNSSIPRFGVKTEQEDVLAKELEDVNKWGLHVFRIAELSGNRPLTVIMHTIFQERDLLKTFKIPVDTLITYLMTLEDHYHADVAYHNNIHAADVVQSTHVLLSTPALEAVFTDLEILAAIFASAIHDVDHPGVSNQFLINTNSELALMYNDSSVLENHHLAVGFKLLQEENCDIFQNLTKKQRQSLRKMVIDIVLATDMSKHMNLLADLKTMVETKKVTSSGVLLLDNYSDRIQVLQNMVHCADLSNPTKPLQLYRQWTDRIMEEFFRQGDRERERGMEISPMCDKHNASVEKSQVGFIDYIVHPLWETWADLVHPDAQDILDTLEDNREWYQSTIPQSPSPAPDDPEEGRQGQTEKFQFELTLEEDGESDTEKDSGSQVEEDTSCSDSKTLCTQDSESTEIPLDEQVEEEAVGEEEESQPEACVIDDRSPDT

SMILES	EC50 [nM]
COc1ncc(Cn2cc(C(=O)O)cn2)cc1-c1cccc(Cl)c1 [Example 270, 1-{[5-(3-Chlorophenyl)-6-methoxypyridin-3-yl]methyl}-1H-pyrazole-4-carboxylic acid]	> 10000
COc1ncc(Cn2cc(NC(C)=O)cn2)cc1-c1cccc(Cl)c1 [Example 172, N-(1-{[5-(3-Chlorophenyl)-6-methoxypyridin-3-yl]methyl}-1H-pyrazol-4-yl)acetamide]	1000 to 10000
COc1ncc(Cc2ccncc2)cc1-c1cccc(Cl)c1 [Example 53, 3-(3-Chlorophenyl)-2-methoxy-5-(pyridin-4-ylmethyl)pyridine]	100 to 1000
COc1ncc(Cn2cnc(N)n2)cc1-c1cncc(Cl)c1 [Example 228, 1-{[5-(5-Chloropyridin-3-yl)-6-methoxypyridin-3-yl]methyl}-1H-1,2,4-triazol-3-amine]	1000 to 10000
CCOc1ncc(Cn2cc(Cl)c(N)n2)cc1-c1cccc(Cl)c1 [Example 234, 4-Chloro-1-{[5-(3-chlorophenyl)-6-ethoxypyridin-3-yl]methyl}-1H-pyrazol-3-amine]	100 to 1000
COc1ncc(Cn2ccccc2=O)cc1-c1cccc(Cl)c1 [Example 177, 1-{[5-(3-Chlorophenyl)-6-methoxypyridin-3-yl]methyl}-1,2-dihydropyridin-2-one]	1000 to 10000
CCOc1ncc(Cn2ncnc2COC)nc1-c1cccc(OC(F)F)c1 [Example 190, 3-[3-(Difluoromethoxy)phenyl]-2-ethoxy-5-{[5-(methoxymethyl)-1H-1,2,4-triazol-1-yl]methyl}pyrazine]	1000 to 10000
CCOC(=O)C1(c2ccc(Cc3cnc(OC(F)F)c(-c4cccc(Cl)c4)c3)cc2)CC1 [Example 101, Ethyl 1-(4-{[5-(3-chlorophenyl)-6-(difluoromethoxy)pyridin-3-yl]methyl}phenyl)cyclopropane-1-carboxylate]	1000 to 10000
FC(F)Oc1ncc(Cn2cnnn2)cc1-c1cccc(Cl)c1 [Example 161, 3-(3-Chlorophenyl)-2-(difluoromethoxy)-5-(1H-1,2,3,4-tetrazol-1-ylmethyl)pyridine]	100 to 1000
COc1ncc(Cc2cnc(OC)c(-c3cccc(Cl)c3)c2)cc1C [Example 67, 3-(3-Chlorophenyl)-2-methoxy-5-[(6-methoxy-5-methylpyridin-3-yl)methyl]pyridine]	100 to 1000
COc1ncc(Cc2cc(C)nc(C)c2)cc1-c1cccc(Cl)c1 [Example 61, 3-(3-Chlorophenyl)-5-[(2,6-dimethylpyridin-4-yl)methyl]-2-methoxypyridine]	1000 to 10000
O=C(O)c1ccc(Cc2cnc(OC(F)F)c(-c3cccc(Cl)c3)c2)cc1 [Example 280, 4-{[5-(3-Chlorophenyl)-6-(difluoromethoxy)pyridin-3-yl]methyl}benzoic acid]	1000 to 10000
COc1ncc(Cc2ccnc(C(N)=O)c2)cc1-c1cccc(Cl)c1 [Example 63, 4-{[5-(3-Chlorophenyl)-6-methoxypyridin-3-yl]methyl}pyridine-2-carboxamide]	1000 to 10000
COc1ncc(C(N)c2ccc(F)cc2)cc1-c1cccc(Cl)c1 (centres unmarked) [Example 18, [5-(3-Chlorophenyl)-6-methoxypyridin-3-yl](4-fluorophenyl)methanamine]	1000 to 10000
COC(=O)c1ncn(Cc2cnc(OC)c(-c3cccc(Cl)c3)c2)n1 [Example 141, Methyl 1-{[5-(3-chlorophenyl)-6-methoxypyridin-3-yl]methyl}-1H-1,2,4-triazole-3-carboxylate]	100 to 1000
COc1ncc(Cc2ccc(NC(=O)NC3COC3)cc2)cc1-c1cccc(Cl)c1 [Example 31, 1-(4-{[5-(3-Chlorophenyl)-6-methoxypyridin-3-yl]methyl}phenyl)-3-(oxetan-3-yl)urea]	1000 to 10000
COc1ncc(Cc2ccc(C#N)cc2)nc1-c1cccc(Cl)c1 [Example 86, 4-{[6-(3-Chlorophenyl)-5-methoxypyrazin-2-yl]methyl}benzonitrile]	100 to 1000
O=C(O)c1ccc(Cc2cnc(OC(F)F)c(-c3cccc(Cl)c3)c2)cn1 [Example 54, 5-{[5-(3-Chlorophenyl)-6-(difluoromethoxy)pyridin-3-yl]methyl}pyridine-2-carboxylic acid]	1000 to 10000
FC(F)Oc1ncc(Cc2nccs2)cc1-c1cccc(Cl)c1 [Example 74, 3-(3-Chlorophenyl)-2-(difluoromethoxy)-5-(1,3-thiazol-2-ylmethyl)pyridine]	100 to 1000
COC(=O)c1ccc(Cc2cnc(OC)c(-c3cccc(Cl)c3)n2)cc1 [Example 85, Methyl 4-{[6-(3-chlorophenyl)-5-methoxypyrazin-2-yl]methyl}benzoate]	100 to 1000
COc1ncc(Cc2cccnc2)cc1-c1cccc(Cl)c1 [Example 64, 3-(3-Chlorophenyl)-2-methoxy-5-(pyridin-3-ylmethyl)pyridine]	100 to 1000
Nc1ccc(Cc2cnc(OC(F)F)c(-c3cccc(Cl)c3)c2)nn1 [Example 111, 6-{[5-(3-Chlorophenyl)-6-(difluoromethoxy)pyridin-3-yl]methyl}pyridazin-3-amine]	100 to 1000

Now from value to compound:

EC50 [nM]	SMILES
100 to 1000	CCOc1ncc(Cn2cnc(COC)n2)nc1-c1cccc(OC(F)F)c1 [Example 189, 3-[3-(Difluoromethoxy)phenyl]-2-ethoxy-5-{[3-(methoxymethyl)-1H-1,2,4-triazol-1-yl]methyl}pyrazine]
100 to 1000	CCOc1ncn(Cc2cnc(OC(F)F)c(-c3cccc(Cl)c3)c2)n1 [Example 216, 3-(3-Chlorophenyl)-2-(difluoromethoxy)-5-[(3-ethoxy-1H-1,2,4-triazol-1-yl)methyl]pyridine]
< 100	CCOc1ncc(Cn2cnc(CO)n2)cc1-c1cccc(Cl)c1 [Example 203, (1-((5-(3-Chlorophenyl)-6-ethoxypyridin-3-yl)methyl)-1H-1,2,4-triazol-3-yl)methanol]
100 to 1000	COc1ncc(Cn2cnc(N)n2)cc1-c1cccc(F)c1 [Example 220, 1-{[5-(3-Fluorophenyl)-6-methoxypyridin-3-yl]methyl}-1H-1,2,4-triazol-3-amine]
< 100	FC(F)Oc1ncc(Cn2cncn2)cc1-c1cccc(Cl)c1 [Example 131, 3-(3-Chlorophenyl)-2-(difluoromethoxy)-5-(1H-1,2,4-triazol-1-ylmethyl)pyridine]
< 100	Cc1ncn(Cc2cnc(OC(F)F)c(-c3cccc(Cl)c3)c2)n1 [Example 148, 3-(3-Chlorophenyl)-2-(difluoromethoxy)-5-[(3-methyl-1H-1,2,4-triazol-1-yl)methyl]pyridine]
< 100	CCOc1cccc(-c2cc(Cn3cc(CO)nn3)cnc2OC(F)F)c1 [Example 264, (1-((6-(Difluoromethoxy)-5-(3-ethoxyphenyl)pyridin-3-yl)methyl)-1H-1,2,3-triazol-4-yl)methanol]
< 100	Cc1ncc(Cc2cnc(OC(F)F)c(-c3cccc(Cl)c3)c2)s1 [Example 73, 3-(3-Chlorophenyl)-2-(difluoromethoxy)-5-[(2-methyl-1,3-thiazol-5-yl)methyl]pyridine]
< 100	COc1ncc(Cn2cnc(CF)n2)cc1-c1ccnc(OC(F)F)c1 [Example 256, 3-[2-(Difluoromethoxy)pyridin-4-yl]-5-{[3-(fluoromethyl)-1H-1,2,4-triazol-1-yl]methyl}-2-methoxypyridine]
< 100	NC(=O)Cc1ccc(Cc2cnc(OC(F)F)c(-c3cccc(Cl)c3)c2)cc1 [Example 246, 2-(4-{[5-(3-Chlorophenyl)-6-(difluoromethoxy)pyridin-3-yl]methyl}phenyl)acetamide]
< 100	CCOc1ncc(Cn2cnc(C(F)(F)F)n2)cc1-c1cccc(OC(F)F)c1 [Example 163, 3-[3-(Difluoromethoxy)phenyl]-2-ethoxy-5-{[3-(trifluoromethyl)-1H-1,2,4-triazol-1-yl]methyl}pyridine]
< 100	COc1ncc(Cn2cncn2)cc1-c1cccc(C(F)F)c1 [Example 144, 3-[3-(Difluoromethyl)phenyl]-2-methoxy-5-(1H-1,2,4-triazol-1-ylmethyl)pyridine]
< 100	COc1ccc(Cc2cnc(OC)c(-c3cccc(Cl)c3)c2)cn1 [Example 32, 3-(3-Chlorophenyl)-2-methoxy-5-[(6-methoxypyridin-3-yl)methyl]pyridine]
< 100	COc1ncc(Cc2cnc(C(C)(C)O)nc2)cc1-c1cccc(OC(F)F)c1 [Example 48, 2-[5-({5-[3-(Difluoromethoxy)phenyl]-6-methoxypyridin-3-yl}methyl)pyrimidin-2-yl]propan-2-ol]
< 100	CNc1ncc(Cc2cnc(OC)c(-c3cccc(Cl)c3)n2)cn1 [Example 56, 5-{[6-(3-Chlorophenyl)-5-methoxypyrazin-2-yl]methyl}-N-methylpyrimidin-2-amine]
< 100	Nc1ncn(Cc2cnc(OC(F)F)c(-c3cccc(Cl)c3)c2)n1 [Example 219, 1-{[5-(3-Chlorophenyl)-6-(difluoromethoxy)pyridin-3-yl]methyl}-1H-1,2,4-triazol-3-amine]
< 100	OCc1cn(Cc2cnc(OC(F)F)c(-c3cccc(Cl)c3)c2)cn1 [Example 274, (1-{[5-(3-Chlorophenyl)-6-(difluoromethoxy)pyridin-3-yl]methyl}-1H-imidazol-4-yl)methanol]
< 100	Fc1cccc(-c2cc(Cn3cncn3)cnc2OC(F)F)c1 [Example 174, 2-(Difluoromethoxy)-3-(3-fluorophenyl)-5-(1H-1,2,4-triazol-1-ylmethyl)pyridine]
< 100	CCOc1ncc(Cn2cc(CO)cn2)cc1-c1cccc(Cl)c1 [Example 276, (1-{[5-(3-Chlorophenyl)-6-ethoxypyridin-3-yl]methyl}-1H-pyrazol-4-yl)methanol]
< 100	COc1ncc(Cc2cncnc2)cc1-c1cccc(Cl)c1 [Example 78, 5-{[5-(3-Chlorophenyl)-6-methoxypyridin-3-yl]methyl}pyrimidine]
< 100	NCc1cncc(Cc2cnc(OC(F)F)c(-c3cccc(Cl)c3)c2)c1 [Example 71, (5-{[5-(3-Chlorophenyl)-6-(difluoromethoxy)pyridin-3-yl]methyl}pyridin-3-yl)methanamine]
< 100	Nc1ncc(Cc2cnc(OC(F)F)c(-c3cccc(Cl)c3)c2)cn1 [Example 89, 5-{[5-(3-Chlorophenyl)-6-(difluoromethoxy)pyridin-3-yl]methyl}pyrimidin-2-amine]
